Measured values published in ChEMBL document CHEMBL5331122, “Structure-Activity Relationship Study of Antimicrobial Peptide PE2 Delivered Novel Linear Derivatives with Potential of Eradicating Biofilms and Low Incidence of Drug Resistance” (J Med Chem, 2023).
Calls of active or inactive are those of the source.

Legend:
Pseudomonas aeruginosa = experiment: Antibacterial activity against Pseudomonas aeruginosa ATCC 27853 assessed as bacterial growth inhibition incubated for 18 hrs by broth microdilution method; format: functional
Bacillus subtilis = experiment: Antibacterial activity against Bacillus subtilis ATCC 23857 assessed as bacterial growth inhibition incubated for 18 hrs by broth microdilution method; format: functional
Enterococcus faecalis = experiment: Antibacterial activity against Enterococcus faecalis ATCC 29212 assessed as bacterial growth inhibition incubated for 18 hrs by broth microdilution method; format: functional
Escherichia coli [1] = experiment: Antibacterial activity against Escherichia coli ATCC 25922 assessed as fold increase in MIC in presence of KCl; format: functional
Escherichia coli [2] = experiment: Antibacterial activity against Escherichia coli ATCC 25922 assessed as fold increase in MIC in presence of MgCl2; format: functional
Escherichia coli [3] = experiment: Antibacterial activity against Escherichia coli ATCC 25922 assessed as fold increase in MIC in presence of ZnCl2; format: functional
Escherichia coli [4] = experiment: Antibacterial activity against Escherichia coli ATCC 25922 assessed as fold increase in MIC in presence of FeCl3; format: functional
Staphylococcus aureus [5] = experiment: Antibacterial activity against Staphylococcus aureus ATCC 25923 assessed as fold increase in MIC in presence of NaCl; format: functional
Staphylococcus aureus [6] = experiment: Antibacterial activity against Staphylococcus aureus ATCC 25923 assessed as fold increase in MIC in presence of MgCl2; format: functional
Staphylococcus aureus [7] = experiment: Antibacterial activity against Staphylococcus aureus ATCC 25923 assessed as fold increase in MIC in presence of FeCl3; format: functional
Escherichia coli [8] = experiment: Antibacterial activity against Escherichia coli ATCC 25922 in presence of 10% mouse serum measured for 6 hrs; format: functional, organism-based
Staphylococcus aureus [9] = experiment: Antibacterial activity against Staphylococcus aureus ATCC 25923 in presence of 10% mouse serum measured for 6 hrs; format: functional, organism-based
Escherichia coli [10] = experiment: Antimicrobial activity against Escherichia coli ATCC 25922 assessed as reduction in survival bacterial growth in presence of trypsin measured after 6 hrs; format: functional, organism-based
Escherichia coli [11] = experiment: Antimicrobial activity against Escherichia coli ATCC 25922 assessed as reduction in survival bacterial growth in presence of chymotrypsin measured after 6 hrs; format: functional, organism-based
Escherichia coli [12] = experiment: Inhibition of biofilm formation in Escherichia coli ATCC 25922 assessed as inhibition of biofilm formation incubated for 24 hrs by crystal violet staining based analysis; format: functional, organism-based
Escherichia coli [13] = experiment: Inhibition of biofilm formation in Escherichia coli ATCC 25922 assessed as inhibition of biofilm formation at 1/4 times MIC incubated for 24 hrs by crystal violet staining based analysis; format: functional, organism-based
Escherichia coli [14] = experiment: Inhibition of biofilm formation in Escherichia coli ATCC 25922 assessed as inhibition of biofilm formation at 1/2 times MIC incubated for 24 hrs by crystal violet staining based analysis; format: functional, organism-based
Staphylococcus aureus [15] = experiment: Inhibition of biofilm formation in Staphylococcus aureus ATCC 25923 assessed as inhibition of biofilm formation at 1/4 times MIC incubated for 24 hrs by crystal violet staining based analysis; format: functional, organism-based
Staphylococcus aureus [16] = experiment: Inhibition of biofilm formation in Staphylococcus aureus ATCC 25923 assessed as inhibition of biofilm formation at 1 times MIC incubated for 24 hrs by crystal violet staining based analysis; format: functional, organism-based
Staphylococcus aureus [17] = experiment: Inhibition of biofilm formation in Staphylococcus aureus ATCC 25923 assessed as inhibition of biofilm formation at 2 times MIC incubated for 24 hrs by crystal violet staining based analysis; format: functional, organism-based
Escherichia coli [18] = experiment: Antibiofilm activity against Escherichia coli ATCC 25922 assessed as biofilm eradication at 1 times MIC incubated for 24 hrs; format: functional, organism-based
Escherichia coli [19] = experiment: Antibiofilm activity against Escherichia coli ATCC 25922 assessed as biofilm eradication at 2 times MIC incubated for 24 hrs; format: functional, organism-based
Escherichia coli [20] = experiment: Antibiofilm activity against Escherichia coli ATCC 25922 assessed as biofilm eradication at 4 times MIC incubated for 24 hrs; format: functional, organism-based
Staphylococcus aureus [21] = experiment: Antibiofilm activity against Staphylococcus aureus ATCC 25923 assessed as biofilm eradication at 2 times MIC incubated for 24 hrs; format: functional, organism-based
Staphylococcus aureus [22] = experiment: Antibiofilm activity against Staphylococcus aureus ATCC 25923 assessed as biofilm eradication at 4 times MIC incubated for 24 hrs; format: functional, organism-based
Staphylococcus aureus [23] = experiment: Antibiofilm activity against Staphylococcus aureus ATCC 25923 assessed as biofilm eradication at 8 times MIC incubated for 24 hrs; format: functional, organism-based
Escherichia coli [24] = experiment: Induction of drug resistance against Escherichia coli ATCC 25922 assessed as fold increase in MIC measured upto 15 passages by sequential passaging method; format: functional
Staphylococcus aureus [25] = experiment: Induction of drug resistance against Staphylococcus aureus ATCC 25923 measured upto 15 passages by sequential passaging method; format: functional
Escherichia coli [26] = experiment: Bactericidal activity against Escherichia coli ATCC 25922 assessed as inhibition of bacterial growth incubated upto 360 mins by time-kill assay; format: functional, organism-based
Escherichia coli [27] = experiment: Bactericidal activity against Escherichia coli ATCC 25922 assessed as inhibition of bacterial growth at 2 times MIC measured upto 360 mins by time-kill assay; format: functional, organism-based
Staphylococcus aureus [28] = experiment: Bactericidal activity against Staphylococcus aureus ATCC 25923 assessed as inhibition of bacterial growth at 0.5 to 2 times MIC by time-kill assay; format: functional, organism-based; conditions: time <= 360.0 min, TDE = time-dependent effect
Staphylococcus aureus [29] = experiment: Bactericidal activity against Staphylococcus aureus ATCC 25923 assessed as inhibition of bacterial growth incubated upto 360 mins by time-kill assay; format: functional, organism-based
Staphylococcus aureus [30] = experiment: Bactericidal activity against Staphylococcus aureus ATCC 25923 assessed as inhibition of bacterial growth at 1/2 times MIC measured upto 360 mins by time-kill assay; format: functional, organism-based
Staphylococcus aureus [31] = experiment: Bactericidal activity against Staphylococcus aureus ATCC 25923 assessed as inhibition of bacterial growth at 1 times MIC measured upto 360 mins by time-kill assay; format: functional, organism-based
Escherichia coli [32] = experiment: Antimicrobial activity against Escherichia coli ATCC 25922 assessed as reduction in microbial growth measured for 18 hrs in presence of 512 microg/ml LPS; format: functional, organism-based
Cell membrane [33] = experiment: Induction of outer membrane permeabilization in Escherichia coli ATCC 25922 assessed as increase in fluorescence intensity at 1 to 4 times MIC measured for 12 hrs by NPN uptake assay; format: subcellular
Cell membrane [34] = experiment: Induction of outer membrane permeabilization in Escherichia coli ATCC 25922 assessed as increase in fluorescence intensity at 2 times MIC measured for 12 hrs by NPN uptake assay; format: subcellular
Cell membrane [35] = experiment: Induction of outer membrane permeabilization in Escherichia coli ATCC 25922 assessed as increase in fluorescence intensity at 4 times MIC measured for 12 hrs by NPN uptake assay; format: subcellular
Cell membrane [36] = experiment: Induction of cell membrane damage in Staphylococcus aureus ATCC 25923 at 2 times MIC after 0.5 to 2 hrs by propidium iodide staining based flow cytometer assay; format: subcellular; conditions: time 0.5-2 hrs
Cell membrane [37] = experiment: Induction of cell membrane damage in Staphylococcus aureus ATCC 25923 at 2 times MIC measured at 30 mins by propidium iodide staining based flow cytometer assay; format: subcellular
Staphylococcus aureus [38] = experiment: Induction of membrane morphological changes in Staphylococcus aureus ATCC 25923 at 4 times MIC measured at 0.5 to 2 hrs by SEM analysis; format: functional, organism-based; conditions: time 0.5-2 hrs
Staphylococcus aureus [39] = experiment: Induction of membrane morphological changes in Staphylococcus aureus ATCC 25923 assessed as appearance of broken bacterial cells at 4 times MIC measured at 0.5 to 2 hrs by SEM analysis; format: functional, organism-based; conditions: time 0.5-2 hrs

CCCCCCCC(=O)N[C@@H](CCN)C(=O)N[C@H](C(=O)N[C@@H](CCN)C(=O)N[C@H](Cc1ccccc1)C(=O)N[C@@H](CC(C)C)C(=O)N[C@@H](CCN)C(=O)N[C@@H](C(=O)N[C@@H](CC(C)C)C(=O)N[C@@H](Cc1ccc(O)cc1)C(N)=O)C(C)C)[C@@H](C)CC
4 mg/L: MIC (Pseudomonas aeruginosa)
64: fold change (FC) (Escherichia coli [24])
16 mg/L: MIC (Enterococcus faecalis)
inactive: inhibition (Escherichia coli [13]) | inhibition (Escherichia coli [14]) | Activity (Staphylococcus aureus [30]) | Activity (Staphylococcus aureus [31]) | Activity (Escherichia coli [32]) | Activity (Cell membrane [34]) | Activity (Cell membrane [37])
active: Activity (Escherichia coli [8]) | Activity (Staphylococcus aureus [9]) | Activity (Escherichia coli [10]) | Activity (Escherichia coli [11]) | inhibition (Escherichia coli [12]) Dose-Dependent Effect | inhibition (Staphylococcus aureus [15]) | inhibition (Staphylococcus aureus [16]) | inhibition (Staphylococcus aureus [17]) | Activity (Escherichia coli [18]) | Activity (Escherichia coli [19]) | Activity (Escherichia coli [20]) | Activity (Staphylococcus aureus [21]) | Activity (Staphylococcus aureus [22]) | Activity (Staphylococcus aureus [23]) | Activity (Staphylococcus aureus [25]) | Activity (Escherichia coli [26]) Dose-Dependent Effect | Activity (Escherichia coli [27]) | Activity (Staphylococcus aureus [28]) Tde | Activity (Staphylococcus aureus [29]) Dose-Dependent Effect | Activity (Cell membrane [33]) | Activity (Cell membrane [35]) | Activity (Cell membrane [36]) | Activity (Staphylococcus aureus [38]) | Activity (Staphylococcus aureus [39])
<=2: fold change (FC) (Escherichia coli [1]) | fold change (FC) (Escherichia coli [2]) | fold change (FC) (Escherichia coli [3]) | fold change (FC) (Escherichia coli [4]) | fold change (FC) (Staphylococcus aureus [5]) | fold change (FC) (Staphylococcus aureus [6]) | fold change (FC) (Staphylococcus aureus [7])
2 mg/L: MIC (Bacillus subtilis)
